From US11219214B2, “Benzosultams and analogues and their use as fungicides” (Bayer CropScience Aktiengesellschaft, priority 2016, dated 2022)
Where two headings read alike, the source gives them in different places.

Columns and labels:
[1] = 0.1% aqueous formic acid and acetonitrile, gradient 10% to 95% acetonitrile
Protocol: In table 1a, the log P values were determined in accordance with EEC Directive 79/831 Annex V.A8 by HPLC (High Performance Liquid Chromatography) on a reversed-phase column (C 18), using the method described below:
Method C: temperature: 55° C.; mobile phases: 0.1% aqueous formic acid and acetonitrile; linear gradient from 10% acetonitrile to 95% acetonitrile.
If more than one Log P value is available within the same method, all the values are given and separated by “;”.

Pyricularia oryzae = experiment: microbe, parasite or virus in culture; format: cell-based; conditions: 120 h, read-out: Efficacy, 20 ppm of active ingredient, liquid culture, 5 days incubation, inhibition of fungal growth
Leptnosphaeria nodorum = experiment: Example C: Leptnosphaeria nodorum in vitro cell test; format: cell-based; conditions: 144 h, liquid culture, 6 days incubation, inhibition of fungal growth, read-out: Efficacy; for inhibition of growth at 20 ppm: 20 ppm of active ingredient
Protocol: Example C: Leptnosphaeria nodorum In Vitro Cell Test • Solvent: dimethyl sulfoxide (DMSO) • Culture medium: 14.6 g anhydrous D-glucose (VWR), 7.1 g Mycological Peptone (Oxoid), 1.4 g granulated Yeast Extract (Merck), QSP 1 liter • Inoculum: spore suspension Active ingredients were solubilized in DMSO and the solution used to prepare the required range of concentrations. […] A spore suspension of L. nodorum was prepared and diluted to the desired spore density. Active ingredients were evaluated for their ability to inhibit spore germination and mycelium growth in liquid culture assay. The compounds were added in the desired concentration to the culture medium with spores. After 6 days incubation, fungi-toxicity of compounds was determined by spectrometric measurement of mycelium growth. Inhibition of fungal growth was determined by comparing the absorbance values in wells containing the active ingredients with the absorbance in control wells without fungicides.

[2] = Method C: HPLC reversed-phase C 18, 55° C.

Compound	chromatographic logP ([1]; Method C: 55° C.)	chromatographic logP ([1]; Method A: 40° C.)	inhibition of growth at 20 ppm (Pyricularia oryzae) [%]	also measured
O=S1(=O)Nc2ccccc2CC12CC2 [III.07A]	1.49	–	–	–
FC(F)(F)c1cccc2cc(I)cnc12 [II.01A]	–	3.11	–	–
N#Cc1ccc2ncc(I)cc2c1 [II.04A]	–	2.5	–	–
CC1(O)c2ccccc2N(c2cnc3ccccc3c2)S(=O)(=O)C1(C)C (centres unmarked) [I.213, 3,3,4-trimethyl-1-(quinolin-3-yl)-3,4-dihydro-1H-2,1-benzothiazin-4-ol 2,2-dioxide]	2.46	–	80 to 89	chromatographic logP [1, 2]: 2.46; inhibition of growth at 20 ppm (Leptnosphaeria nodorum): 80 to 89%
Fc1ccc(F)c2ncc(I)cc12 [II.06A]	–	2.94	–	–
CC1Cc2ccccc2NS1(=O)=O (centres unmarked) [3-methyl-3,4-dihydro-1H-2,1-benzothiazine 2,2-dioxide]	1.33	–	–	–
O=S1(=O)CC(=NOCc2ccccc2)c2ccccc2N1c1cnc2ccccc2c1 [I.241, N-(benzyloxy)-1-(quinolin-3-yl)-1H-2,1-benzothiazin-4(3H)-imine 2,2-dioxide]	3.94	–	70 to 79	chromatographic logP [1, 2]: 3.94
Fc1cc(F)c2ncc(I)cc2c1 [II.05A]	–	2.88	–	–
N#Cc1cccc2cc(I)cnc12 [II.11A]	–	2.54	–	–
Cc1ccc(F)c2ncc(I)cc12 [II.10A]	–	3.06	–	–
Fc1cc(Cl)cc2cc(I)cnc12 [II.09A]	–	3.15	–	–
CC1Cc2ccccc2N(c2cc3ccccc3[n+]([O-])c2)S1(=O)=O (centres unmarked) [I.162, 3-methyl-1-(1-oxidoquinolin-3-yl)-3,4-dihydro-1H-2,1-benzothiazine 2,2-dioxide]	1.81	–	90 to 100	inhibition of growth at 20 ppm (Leptnosphaeria nodorum): 90 to 100%
O=S1(=O)CCCc2ccccc2N1 [IIIc.02, 1,3,4,5-tetrahydro-2,1-benzothiazepine 2,2-dioxide]	1.2	–	–	–
O=S1(=O)N(Cc2ccccc2)c2ccccc2CC12CC2 [IV.01A]	3.19	–	–	–
COC(=O)c1ccccc1Nc1cnc2ccccc2c1 [methyl 2-(quinolin-3-ylamino)benzoate]	2.96	–	–	–
CC1(OCc2ccccc2)c2ccccc2N(c2cnc3ccccc3c2)S(=O)(=O)C1(C)C (centres unmarked) [I.250, 4-(benzyloxy)-3,3,4-trimethyl-1-(quinolin-3-yl)-3,4-dihydro-1H-2,1-benzothiazine 2,2-dioxide]	4.04	–	80 to 89	inhibition of growth at 20 ppm (Leptnosphaeria nodorum): 90 to 100%
O=C1c2ccccc2N(c2cnc3ccccc3c2)S(=O)(=O)C1(Cl)Cl [I.239, 3,3-dichloro-1-(quinolin-3-yl)-1H-2,1-benzothiazin-4(3H)-one 2,2-dioxide]	3.49	–	–	chromatographic logP [1, 2]: 3.49
Cc1ccc2cc(I)cnc2c1F [II.03A]	–	3.11	–	–
O=C1CS(=O)(=O)N(c2cnc3ccccc3c2)c2ccccc21 [I.159, 1-(quinolin-3-yl)-1H-2,1-benzothiazin-4(3H)-one 2,2-dioxide]	2.28	–	–	–
CC1(C)C(=O)c2ccccc2N(c2cnc3ccccc3c2)S1(=O)=O [I.156, 3,3-dimethyl-1-(quinolin-3-yl)-1H-2,1-benzothiazin-4(3H)-one 2,2-dioxide]	2.93	–	90 to 100	inhibition of growth at 20 ppm (Leptnosphaeria nodorum): 70 to 79%
N#Cc1cccc2c1CS(=O)(=O)N2 [III.05A]	–	1.08	–	–
CC1(C)CS(=O)(=O)N(c2cnc3ccccc3c2)c2ccccc21 [I.166, 4,4-dimethyl-1-(quinolin-3-yl)-3,4-dihydro-1H-2,1-benzothiazine 2,2-dioxide]	2.88	–	90 to 100	–

Compound	chromatographic logP ([1]; Method C: 55° C.)	chromatographic logP ([1]; Method A: 40° C.)	inhibition of growth at 20 ppm (Pyricularia oryzae) [%]	also measured
CC1C(C)(C)c2ccccc2N(c2cnc3ccccc3c2)S1(=O)=O (centres unmarked) [I.173, 3,4,4-trimethyl-1-(quinolin-3-yl)-3,4-dihydro-1H-2,1-benzothiazine 2,2-dioxide]	3.53	–	90 to 100	inhibition of growth at 20 ppm (Leptnosphaeria nodorum): 90 to 100%
O=S1(=O)C=CCc2ccccc2N1Cc1ccccc1 [V.01, 1-benzyl-1,5-dihydro-2,1-benzothiazepine 2,2-dioxide]	6.01	–	–	–
CC1Cc2ccccc2N(c2cnc3ccccc3c2)S1(=O)=O (centres unmarked) [I.158, 3-methyl-1-(quinolin-3-yl)-3,4-dihydro-1H-2,1-benzothiazine 2,2-dioxide]	2.58	–	–	–
CC1(C)C(F)(F)c2ccccc2N(c2cnc3ccccc3c2)S1(=O)=O [I.163, 4,4-difluoro-3,3-dimethyl-1-(quinolin-3-yl)-3,4-dihydro-1H-2,1-benzothiazine 2,2-dioxide]	3.25	–	80 to 89	inhibition of growth at 20 ppm (Leptnosphaeria nodorum): 90 to 100%
Fc1cc2cc(I)cnc2cc1F [II.08A]	–	3.15	–	–
O=S1(=O)Cc2c(F)cccc2N1 [III.01A]	–	1.34	–	–
O=S1(=O)Cc2ccccc2N1c1cnc2c(F)cccc2c1 [I.018, 3-(2,2-dioxido-2,1-benzothiazol-1(3H)-yl)-8-fluoroquinoline]	–	2.52	–	inhibition of growth at 20 ppm (Leptnosphaeria nodorum): 90 to 100%
O=S1(=O)Cc2c(cccc2C(F)(F)F)N1 [III.02A]	–	1.99	–	–
Fc1cc(F)c2cc(I)cnc2c1 [II.12A]	–	3.31	–	–
CC1(F)c2ccccc2N(c2cnc3c(F)c(F)ccc3c2)S(=O)(=O)C1(C)C (centres unmarked) [I.225, 1-(7,8-difluoroquinolin-3-yl)-4-fluoro-3,3,4-trimethyl-3,4-dihydro-1H-2,1-benzothiazine 2,2-dioxide]	3.6	–	90 to 100	chromatographic logP [1, 2]: 3.6; inhibition of growth at 20 ppm (Leptnosphaeria nodorum): 90 to 100%
COC1N(c2cnc3c(F)cccc3c2)c2ccccc2C1(C)C (centres unmarked) [CMP1, 8-fluoro-3-(2-methoxy-3,3-dimethyl-2,3-dihydro-1H-indol-1-yl)quinoline, reference compound]	–	–	7	inhibition of growth at 4 ppm (Leptnosphaeria nodorum): 0%; inhibition of growth at 20 ppm (Leptnosphaeria nodorum): 5%
CC1(C)c2ccccc2N(c2cnc3c(F)cccc3c2)S1(=O)=O [I.015, 3-(3,3-dimethyl-2,2-dioxido-2,1-benzothiazol-1(3H)-yl)-8-fluoroquinoline]	–	3.12	90 to 100	inhibition of growth at 4 ppm (Leptnosphaeria nodorum): ≥ 80%; inhibition of growth at 20 ppm (Leptnosphaeria nodorum): 90 to 100%
O=S1(=O)Cc2cc(C(F)(F)F)ccc2N1 [III.03A]	–	1.95	–	–
CC(C)(CS(=O)(=O)Nc1cnc2ccccc2c1)c1ccccc1Br [VIIIa.18, 2-(2-bromophenyl)-2-methyl-N-(quinolin-3-yl)propane-1-sulfonamide]	2.98	–	–	–
Fc1c(Cl)ccc2cc(I)cnc12 [II.02A]	–	3.37	–	–
Clc1ccc2cc(I)cnc2c1Cl [II.07A]	–	3.83	–	–
CC1(C)Cc2ccccc2NS1(=O)=O [III.06A]	1.6	–	–	–
COC(=O)c1ccccc1N(c1cnc2ccccc2c1)S(C)(=O)=O [Xa.02, methyl 2-[(methylsulfonyl)(quinolin-3-yl)amino]benzoate]	2.17	–	–	–
CC1(C)c2ccccc2N(c2cnc3ccccc3c2)S(=O)(=O)C1(C)C [I.172, 3,3,4,4-tetramethyl-1-(quinolin-3-yl)-3,4-dihydro-1H-2,1-benzothiazine 2,2-dioxide]	3.85	–	90 to 100	inhibition of growth at 20 ppm (Leptnosphaeria nodorum): 90 to 100%
C=C1c2ccccc2N(c2cnc3c(F)c(F)ccc3c2)S(=O)(=O)C1(C)C [I.219, 1-(7,8-difluoroquinolin-3-yl)-3,3-dimethyl-4-methylene-3,4-dihydro-1H-2,1-benzothiazine 2,2-dioxide]	3.34	–	90 to 100	chromatographic logP [1, 2]: 3.34; inhibition of growth at 20 ppm (Leptnosphaeria nodorum): 90 to 100%
O=S1(=O)Cc2c(cccc2OC(F)(F)F)N1 [III.04A]	–	2.11	–	–
